Patent publication US11884750B2, “Cationic cell penetrating peptides and the use thereof” (CELLTROY CO., LTD., priority 2021, dated 2024)

Tests used:
SH-SY5Y cells = experiment: Cell penetration efficiency in human neuroblastoma cells, 4 μM, flow cytometry; type: cell-based; conditions: one hour; for cell permeability compared with TAT: 4 μM FITC-conjugated CPP, flow cytometry; for Score / Score/TAT: 4 μM FITC-conjugated peptide; for Score: intracellular fluorescence by flow cytometry; for Score/TAT: ratio to FITC-conjugated TAT
Description: The cell penetration efficiency of the cationic CPPs selected in Example 1 was evaluated in neuroblastoma. In further detail, SH-SYSY cells, which is a human neuroblastoma cell line, were seeded in 24-well plates to have a cell density of 1×10^7 cells/well, and cultured in 10% FBS-added DMEM under conditions of 37° C. and 5% CO2 for 24 hours. In addition, the cells were treated with 4 μM each of FITC-conjugated CPPs (C12, C14, C16, C31, C52, and C67), or FITC-conjugated TAT, and incubated for one hour. After the termination of the incubation, the cells were transferred to a sterile tube using 0.25% trypsin and centrifuged to remove the medium. Afterward, the cells were washed with 500 μL of D-PBS twice to completely remove the medium, and finally, resuspended in 400 μL of D-PBS and intracellular fluorescence was measured by flow cytometry (FACSCanto II).
(§1) To evaluate the cell penetration efficiency of the additionally selected cationic CPPs, an experiment was conducted using human epidermal cells or human neuroblastoma cells. In further detail, HaCAT cells, which is a human epidermal cell line, or SH-SYSY cells, which is a human neuroblastoma cell line, were seeded in 24-well plates to have a cell density of 1×10^7 cells/well and cultured in 10% FBS-added DMEM under conditions of 37° C. and 5% CO2 for 24 hours. In addition, the cells were treated with 4 μM each of FITC-conjugated peptides and FITC-conjugated TAT for one hour. After the completion of the culture, the cells were transferred to a sterile tube using 0.25% trypsin and centrifuged to remove the medium. Afterward, the cells were washed with 500 μL of D-PBS twice to completely remove the medium, and finally, resuspended in 400 μL of D-PBS and intracellular fluorescence was measured by flow cytometry (FACSCanto II).
(§2) Subsequently, to confirm whether the CPPs according to the present invention show excellent cell permeability into different types of cells/tissues, various tissue-derived cells were treated with biologically active molecule-conjugated CPPs to compare its delivery capacity with TAT. As in the previous examples, each cell was aliquoted in a plate at an appropriate density, and cultured in a 10% FBS-added medium under a condition of 37° C. and 5% CO2 for 24 hours. Subsequently, the cells were treated with 4 μM each of FITC-conjugated CPP or FITC-conjugated TAT and incubated for one hour. After the completion of the incubation, the cells were transferred to a sterile tube using 0.25% trypsin and centrifuged to remove the medium. Afterward, the cells were washed with 500 μL of D-PBS twice to completely remove the medium, and finally, resuspended in 400 μL of D-PBS and intracellular fluorescence was measured by flow cytometry (FACSCanto II).

HeLa cell line = experiment: Cell penetration efficiency using cervical cancer cells; type: cell-based; conditions: 4 μM FITC-conjugated CPP, one hour
Description: as §2

A-427 cell line = experiment: Cell penetration efficiency using lung cells; type: cell-based; conditions: A-427 lung cells, 4 μM FITC-conjugated CPP, one hour
Description: as §2

HT1080 cell line = experiment: Cell penetration efficiency using connective tissue (fibrosarcoma) cells; type: cell-based; conditions: 4 μM FITC-conjugated CPP, one hour
Description: as §2

HaCAT cells = experiment: Cell penetration efficiency in human epidermal (skin) cells, 4 μM, flow cytometry; type: cell-based; conditions: 4 μM FITC-conjugated CPP, one hour
Description: The cell penetration efficiency of the cationic CPPs selected in Example 1 was evaluated using human epidermal cells. In further detail, HaCAT cells, which is a human epidermal cell line, were seeded in 24-well plates to have a cell density of 1×10^7 cells/well, and cultured in 10% FBS-added DMEM under conditions of 37° C. and 5% CO2 for 24 hours. Subsequently, the cells were treated 4 μM each of the FITC-conjugated CPP or FITC-conjugated TAT, and incubated for one hour. After the termination of the incubation, the cells were transferred to a sterile tube using 0.25% trypsin, and the medium was removed through centrifugation. Afterward, the cells were washed with 500 μL of D-PBS twice to completely remove the medium, and finally, resuspended in 400 μL of D-PBS and intracellular fluorescence was measured by flow cytometry (FACSCanto II).
as §1, §2

HGB cell line = experiment: Cell penetration efficiency in glioblastoma cells; type: cell-based, human; conditions: 4 μM FITC-conjugated CPP, one hour
Description: as §2

HEK293T cell line = experiment: Cell penetration efficiency using kidney cells; type: cell-based; conditions: 4 μM FITC-conjugated CPP, one hour
Description: as §2

SNU-46 cell line = experiment: Cell penetration efficiency using laryngeal cells; type: cell-based; conditions: SNU-46 laryngeal cells, 4 μM FITC-conjugated CPP, one hour
Description: as §2

HDF cell line = experiment: Cell penetration efficiency in skin cells (HDF); type: cell-based; conditions: 4 μM FITC-conjugated CPP, one hour
Description: as §2

Row | Sequence | cell permeability compared with TAT (SH-SY5Y cells) | Score (SH-SY5Y cells) | Score/TAT (SH-SY5Y cells) | cell permeability compared with TAT (HeLa cell line) | cell permeability compared with TAT (A-427 cell line) | cell permeability compared with TAT (HT1080 cell line) | cell permeability compared with TAT (HaCAT cells) | cell permeability compared with TAT (HGB cell line) | cell permeability compared with TAT (HEK293T cell line) | cell permeability compared with TAT (SNU-46 cell line) | cell permeability compared with TAT (HDF cell line)
1 | AIKRRRRRALAKRP [C148] | higher cell permeability | 669 | 1.289 | higher cell permeability |  |  |  |  |  |  | 
2 | ARKNRMARQRRLRP [C45] | higher cell permeability | 570 | 1.098 |  | higher cell permeability | higher cell permeability |  |  |  |  | 
3 | ARRLRRRTAKLPAR [C102] | higher cell permeability | 720 | 1.387 |  |  |  | higher cell permeability | higher cell permeability |  |  | 
4 | ARVRARLRRRRIEP [C229] | higher cell permeability | 536 | 1.033 | higher cell permeability |  |  |  |  | higher cell permeability |  | 
5 | AVKRRRRRALAKRP [C149] | higher cell permeability | 657 | 1.266 |  |  |  |  |  |  |  | 
6 | KARARRILRRREAP [C191] | higher cell permeability | 592 | 1.141 | higher cell permeability |  |  |  | higher cell permeability |  |  | 
7 | KARARRILRRRETP [C190] | higher cell permeability | 579 | 1.116 |  |  |  |  | higher cell permeability |  |  | 
8 | LDRERRRKKAERRP [C312] |  | 271 | 0.522 |  |  |  |  |  |  |  | 
9 | LRRVETLRRRKQPR [C319] |  | 436 | 0.840 | higher cell permeability |  |  |  |  | higher cell permeability |  | 
10 | RALKLRRRRRAVLP [C68] |  | 0 | 0.000 |  |  |  |  |  |  |  | 
11 | RALRRRAARAARRP [C37] |  | 0 | 0.000 |  |  |  |  |  |  |  | 
12 | RALRRRLHRQRKLP [C355] |  | 497 | 0.958 | higher cell permeability |  |  |  | higher cell permeability | higher cell permeability |  | 
13 | RERKRAARKKIKKP [C210] |  | 386 | 0.744 |  |  |  |  |  |  |  | 
14 | RERKRANRKKLKKP [C310] |  | 452 | 0.871 |  |  |  |  | higher cell permeability | higher cell permeability |  | 
15 | RIRALARRRDRRRP [C354] | higher cell permeability | 564 | 1.087 | higher cell permeability | higher cell permeability | higher cell permeability |  | higher cell permeability | higher cell permeability |  | 
16 | RKVLPRKQKRKRVK [C214] |  | 459 | 0.884 | higher cell permeability |  |  |  |  |  |  | 
17 | RLKEERLKKRRRSP [C264] |  | 268 | 0.516 |  |  |  |  |  |  |  | 

Row | Sequence | cell permeability compared with TAT (SH-SY5Y cells) | Score (SH-SY5Y cells) | Score/TAT (SH-SY5Y cells) | cell permeability compared with TAT (HeLa cell line) | cell permeability compared with TAT (A-427 cell line) | cell permeability compared with TAT (HT1080 cell line) | cell permeability compared with TAT (HaCAT cells) | cell permeability compared with TAT (HGB cell line) | cell permeability compared with TAT (HEK293T cell line) | cell permeability compared with TAT (SNU-46 cell line) | cell permeability compared with TAT (HDF cell line)
18 | RLRAIRRRRRSLDP [C219] |  | 453 | 0.873 | higher cell permeability |  |  |  |  |  |  | 
19 | RLREKRRSLKRKRP [C262] |  | 345 | 0.665 | higher cell permeability | higher cell permeability | higher cell permeability |  |  | higher cell permeability |  | 
20 | RPIRKLVRKAREKR [C168] | higher cell permeability | 608 | 1.171 |  |  |  |  | higher cell permeability |  |  | 
21 | RPRRKKQAKRLGKR [C378] |  | 400 | 0.771 | higher cell permeability |  |  |  |  |  | higher cell permeability | 
22 | RPRRKKQVKRIGKR [C379] |  | 391 | 0.753 | higher cell permeability |  |  |  |  |  |  | 
23 | RRALKRRAMRARRP [C170] | higher cell permeability | 605 | 1.166 | higher cell permeability |  |  |  | higher cell permeability |  |  | higher cell permeability
24 | RRKVVREKRKRKLP [C203] | higher cell permeability | 544 | 1.048 | higher cell permeability |  |  |  |  |  |  | 
25 | RRREPLRARARVRR [C387] | higher cell permeability | 560 | 1.079 | higher cell permeability |  |  |  |  | higher cell permeability |  | 
26 | RRRQRKEKVRNQKP [C57] |  | 0 | 0.000 |  |  |  |  |  |  |  | 
27 | RSPARKRVRAQKKR [C360] |  | 388 | 0.748 |  |  |  |  |  |  |  | 
28 | RVAALLRRRRRERP [C202] | higher cell permeability | 727 | 1.401 | higher cell permeability |  | higher cell permeability |  | higher cell permeability |  |  | 
29 | RVRAILRRTRRKEP [C236] |  | 395 | 0.761 | higher cell permeability |  | higher cell permeability |  |  | higher cell permeability |  | 
30 | RVRALARRRRQARP [C282] |  | 441 | 0.850 | higher cell permeability | higher cell permeability | higher cell permeability |  |  | higher cell permeability |  | 
31 | RVRSLARRARRRTP [C401] |  | 425 | 0.819 |  | higher cell permeability | higher cell permeability |  |  |  |  | 
32 | RVRTLLRRRRTERP [C402] |  | 437 | 0.842 |  | higher cell permeability | higher cell permeability |  |  |  |  | 
33 | SVKRRRRRALAKRP [C341] | higher cell permeability | 747 | 1.439 | higher cell permeability |  | higher cell permeability |  | higher cell permeability | higher cell permeability |  | 
34 | YLRRKLRRRAGEPR [C230] |  | 305 | 0.588 | higher cell permeability |  |  |  |  | higher cell permeability |  | 
